This note sets out measurements from patent US11939307B2, “Phenylmethyl-piperazine derivatives and antiviral uses thereof” (INSTITUTE OF MEDICINAL BIOTECHNOLOGY, CHINESE ACADEMY OF …, priority 2019, dated 2024).

Like-named read-outs stand apart in the source and are kept apart here.

This test concerns HCV. The experiment in a line: Assay of anti-HCV activity in HCV-infected Huh7.5 cells (intracellular HCV RNA by one-step quantitative RT-PCR). It counts as cell-based. The following applies: Hepatitis C virus, read-out: inhibitory activities (inhibitory levels of the compounds against HCV replication). The method, boiled down:
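Huh7.5 cells were infected with HCV particles while compounds were added at 1 μM, then incubated 96 h at 37 °C, 5% CO2. Intracellular HCV RNA was quantified by one-step qRT-PCR, and inhibition was calculated relative to the viral control.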

The mark [1] stands for this setting: compound at 1 μM, Huh7.5 cells infected with HCV, 96 hrs, intracellular HCV RNA vs viral control.

In the case of `CN(C)CCN(C)c1ccc(C#N)c(CN2CCN(C(c3ccc(C(C)(C)C)cc3)c3ccc(C(C)(C)C)cc3)CC2)c1` [Compound 82, 2-((4-(bis(4-tert-butylphenyl)methyl)piperazin-1-yl)methyl)-4-((2-(dimethylamino)ethyl)(methyl)amino)benzonitrile], the inhibition at 1 µM under setting [1] is above 75%.

Regarding `CN(C)CCN(C)c1ccc(C#N)c(CN2CCN(C(c3ccc(Br)cc3)c3ccc(Br)cc3)CC2)c1` [Compound 83, 2-((4-(bis(4-bromophenyl)methyl)piperazin-1-yl)methyl)-4-((2-(dimethylamino)ethyl)(methyl)amino)benzonitrile], the inhibition at 1 µM under setting [1] is above 75%.

Turning to `CN(C)CCN(C)c1ccc(C#N)c(CN2CCN(C(c3ccc(C4CC4)cc3)c3ccc(C4CC4)cc3)CC2)c1` [Compound 84, 2-((4-(bis(4-cyclopropylphenyl)methyl)piperazin-1-yl)methyl)-4-((2-(dimethylamino)ethyl)(methyl)amino)benzonitrile], under setting [1], the inhibition at 1 µM was above 75%.

Consider `CN(C)C1CCN(c2ccc(C#N)c(CN3CCN(C(c4ccc(Cl)cc4)c4ccc(Cl)cc4)CC3)c2)C1` (stereo not drawn) [Compound 85, 2-((4-(bis(4-chlorophenyl)methyl)piperazin-1-yl)methyl)-4-(3-(dimethylamino)pyrrolidin-1-yl)benzonitrile], for which the inhibition at 1 µM under setting [1] was above 75%.

For `CN(CCN1CCCC1)c1ccc(C#N)c(CN2CCN(C(c3ccc(Cl)cc3)c3ccc(Cl)cc3)CC2)c1` [Compound 86, 2-((4-(bis(4-chlorophenyl)methyl)piperazin-1-yl)methyl)-4-(methyl(2-(pyrrolidin-1-yl)ethyl)amino)benzonitrile], the inhibition at 1 µM under setting [1] is above 75%.

Regarding `CN(CCN1CC1)c1ccc(C#N)c(CN2CCN(C(c3ccc(Cl)cc3)c3ccc(Cl)cc3)CC2)c1` [Compound 87, 4-((2-(aziridin-1-yl)ethyl)(methyl)amino)-2-((4-(bis(4-chlorophenyl)methyl)piperazin-1-yl)methyl)benzonitrile], the inhibition at 1 µM (Huh7.5, 96 h) was 50 to 75%.

For `CN1CCCN(c2ccc(C#N)c(CN3CCN(C(c4ccccc4)c4ccc(Cl)cc4)CC3)c2)CC1` (stereo not drawn) [Compound 88, 2-((4-((4-chlorophenyl)(phenyl)methyl)piperazin-1-yl)methyl)-4-(4-methyl-1,4-diazepan-1-yl)benzonitrile], the inhibition at 1 µM under setting [1] is above 75%.

For `CN1CCCN(c2ccc(C#N)c(CN3CCN(C(c4ccncc4)c4ccc(Cl)cc4)CC3)c2)CC1` (stereo not drawn) [Compound 89, 2-((4-((4-chlorophenyl)(pyridin-4-yl)methyl)piperazin-1-yl)methyl)-4-(4-methyl-1,4-diazepan-1-yl)benzonitrile], under setting [1], the inhibition at 1 µM was above 75%.

Regarding `CN(C)CCN(C)c1ccc(C#N)c(CN2CCC(C(c3ccc(Cl)cc3)c3ccc(Cl)cc3)CC2)c1` [Compound 90, 2-((4-(bis(4-chlorophenyl)methyl)piperidin-1-yl)methyl)-4-((2-(dimethylamino)ethyl)(methyl)amino)benzonitrile], the inhibition at 1 µM under setting [1] is above 75%.

Regarding `CN1CCCN(c2ccc(C#N)c(CN3CCC(C(c4ccc(F)cc4)c4ccc(F)cc4)CC3)c2)CC1` [Compound 91, 2-((4-(bis(4-fluorophenyl)methyl)piperidin-1-yl)methyl)-4-(4-methyl-1,4-diazepan-1-yl)benzonitrile], the inhibition at 1 µM under setting [1] is above 75%.

`CN1CCC(N(C)c2ccc(C(F)(F)F)c(CN3CCN(c4ccc(Cl)cc4)CC3)c2)C1` (stereo not drawn) [Compound 92]: under setting [1], the inhibition at 1 µM is above 75%.

For `CCN(C)CCN(C)c1ccc(C#N)c(CN2CCN(C(C)c3cnccn3)CC2)c1` (stereo not drawn) [Compound 93, 4-[{2-[ethyl(methyl)amino]ethyl}(methyl)amino)-2-({4-[1-(pyrazin-2-yl)ethyl]piperazin-1-yl}methyl)benzonitrile], under setting [1], the inhibition at 1 µM lay within 50 to 75%.

Regarding `CCN(CC)CCN(C)c1ccc(C(F)(F)F)c(CN2CCN(C(c3ccc(Cl)c(Cl)c3)c3ccc(Cl)c(Cl)c3)CC2)c1` [Compound 94, N1-(3-[{4-[bis(3,4-dichlorophenyl)methyl]piperazin-1-yl}methyl]-4-(trifluoromethyl)phenyl)-N2,N2-diethyl-N1-methylethan-1,2-diamine], the inhibition at 1 µM under setting [1] is above 75%.

With `Cc1cc(C(c2ccc(Cl)c(C)c2)N2CCN(Cc3cc(N(C)CCN(C)C)ccc3C#N)CC2)ccc1Cl` [Compound 95, 2-({4-[bis(4-chloro-3-methylphenyl)methyl]piperazin-1-yl}methyl)-4-{[2-(dimethylamino)ethyl](methyl)amino)benzonitrile], the inhibition at 1 µM under setting [1] is above 75%.

As to `CN1CCCN(c2ccc(C(F)(F)F)c(CN3CCN(C(c4ccc(Cl)c(Cl)c4)C4CCCCC4)CC3)c2)CC1` (stereo not drawn) [Compound 96, 1-[3-({4-[cyclohexyl(3,4-dichlorophenyl)methyl]piperazin-1-yl}methyl)-4-(trifluoromethyl)phenyl]-4-methyl-1,4-diazepane], under setting [1], the inhibition at 1 µM is above 75%.

Regarding `CN1CCCN(c2ccc(C#N)c(CN3CCN(C(c4ccc(Cl)cc4)C4CCC4)CC3)c2)CC1` (stereo not drawn) [Compound 97, 2-({4-[(4-chlorophenyl)(cyclobutyl)methyl]piperazin-1-yl}methyl)-4-(4-methyl-1,4-diazepan-1-yl)benzonitrile], under setting [1], the inhibition at 1 µM is above 75%.

In the case of `CN1CCN(c2ccc(C#N)c(CN3CCN(C(c4ccc(C(F)(F)F)cc4)c4cnccn4)CC3)c2)CC1` (stereo not drawn) [Compound 99], the inhibition at 1 µM under setting [1] fell in the range of 50 to 75%.

As for `CN1CCCN(c2ccc(C(F)(F)F)c(CN3CCN(C(c4ccc(Oc5ccccc5)cc4)c4ccccn4)CC3)c2)CC1` (stereo not drawn) [Compound 100, 1-methyl-4-[3-({4-[(4-phenoxyphenyl)(pyridin-2-yl)methyl]piperazin-1-yl}methyl)-4-(trifluoromethyl)phenyl]-1,4-diazepane], under setting [1], the inhibition at 1 µM fell in the range of 50 to 75%.

With `CCN1CCC(N(C)c2ccc(C(F)(F)F)c(CN3CCN(C(c4ccc(Sc5ccccc5)cc4)c4ccc(Sc5ccccc5)cc4)CC3)c2)C1` (stereo not drawn) [Compound 101, N-{3-([4-{bis[4-(phenylthio)phenyl]methyl}piperazin-1-yl]methyl)-4-(trifluoromethyl)phenyl}-1-ethyl-N-methylpyrrolidin-3-amine], the inhibition at 1 µM under setting [1] was above 75%.

Regarding `CSc1ccc(C(c2ccc(SC)cc2)N2CCN(Cc3cc(N(C)CCN(C)C)ccc3C#N)CC2)cc1` [Compound 102, 2-({4-(bis(4-(methylthio)phenyl]methyl}piperazin-1-yl)methyl)-4-{[2-(dimethylamino)ethyl](methyl)amino}benzonitrile], the inhibition at 1 µM under setting [1] is above 75%.

Regarding `CN(CCN1CCCC1)c1ccc(C(F)(F)F)c(CN2CCN(C(c3ccc(C(F)(F)F)cc3)c3ccc(C(F)(F)F)cc3)CC2)c1` [Compound 103, 3-([4-{bis[4-(trifluoromethyl)phenyl]methyl}piperazin-1-yl]methyl)-N-methyl-N-[2-(pyrrolidin-1-yl)ethyl]-4-(trifluoromethyl)aniline], under setting [1], the inhibition at 1 µM is above 75%.

Consider `CN(C)CCN(C)c1ccc(C#N)c(CN2CCN(C(c3ccc(C#N)cc3)C3CCCC3)CC2)c1` (stereo not drawn) [Compound 104, 2-({4-[(4-cyanophenyl)(cyclopentyl)methyl]piperazin-1-yl}methyl)-4-{[2-(dimethylamino)ethyl](methyl)amino}benzonitrile], for which the inhibition at 1 µM under setting [1] is above 75%.

With `CC(c1ccc(C#N)cc1)N1CCN(Cc2cc(N(C)CCN(C)C)ccc2C(F)(F)F)CC1` (stereo not drawn) [Compound 105, 4-{1-(4-[5-{[2-(dimethylamino)ethyl](methyl)amino}-2-(trifluoromethyl)benzyl]piperazin-1-yl)ethyl}benzonitrile], the inhibition at 1 µM under setting [1] is above 75%.

`N#Cc1ccc(NCCCn2ccnc2)cc1CN1CCN(C(c2ccc(Cl)cc2)c2ccc(Cl)cc2)CC1` [Compound 106, 4-([3-(1H-imidazol-1-yl)propyl]amino)-2-({4-[bis(4-chlorophenyl)methyl]piperazin-1-yl}methyl)benzonitrile]: the inhibition at 1 µM under setting [1] was above 75%.

Take `CN(C)CCN(C)c1ccc(C(F)(F)F)c(CN2CCN(c3ccc(Cl)c(Cl)c3)CC2)c1` [Compound 107, N^1-(3-((4-(3,4-dichlorophenyl)piperazin-1-yl)methyl)-4-(trifluoromethyl)phenyl)-N^1,N^2,N^2-trimethylethan-1,2-diamine]: the inhibition at 1 µM under setting [1] was above 75%.

With `Cc1cc(N2CCN(Cc3cc(N(C)CCN(C)C)ccc3C(F)(F)F)CC2)ccc1Cl` [Compound 108, N^1-(3-((4-(4-chloro-3-methylphenyl)piperazin-1-yl)methyl)-4-(trifluoromethyl)phenyl)-N^1,N^2,N^2-trimethylethan-1,2-diamine], the inhibition at 1 µM under setting [1] was above 75%.

As to `CN1CCCN(c2ccc(C(F)(F)F)c(CN3CCN(c4ccc(Cl)c(Cl)c4)CC3)c2)CC1` [Compound 109, 1-(3-((4-(3,4-dichlorophenyl)piperazin-1-yl)methyl)-4-(trifluoromethyl)phenyl)-4-methyl-1,4-diazepane], the inhibition at 1 µM under setting [1] was above 75%.
